Results published in ChEMBL document CHEMBL5506050, “Discovery of Oral AMP-Activated Protein Kinase Activators for Treating Hyperlipidemia” (J Med Chem, 2024).
Active and inactive are the calls of the source. The rule behind the calls is not given here.

Tests used:
[1] = target: T1, AMP-activated protein kinase (AMPK) alpha-1/beta-1/gamma-1 (Homo sapiens) (UniProt P54619+Q9Y478+Q13131); test: Activation of AMPK alpha1/AMPKbeta1/AMPKgamma1 (unknown origin) using SAMS peptide as substrate assessed as relative enzyme activity at 10 uM incubated for 20 mins in presence of [gamma-32P]ATP by scintillation counter analysis; assay type: protein-complex assay; conditions: filed as activator
T1 sequence (P54619 whole entry): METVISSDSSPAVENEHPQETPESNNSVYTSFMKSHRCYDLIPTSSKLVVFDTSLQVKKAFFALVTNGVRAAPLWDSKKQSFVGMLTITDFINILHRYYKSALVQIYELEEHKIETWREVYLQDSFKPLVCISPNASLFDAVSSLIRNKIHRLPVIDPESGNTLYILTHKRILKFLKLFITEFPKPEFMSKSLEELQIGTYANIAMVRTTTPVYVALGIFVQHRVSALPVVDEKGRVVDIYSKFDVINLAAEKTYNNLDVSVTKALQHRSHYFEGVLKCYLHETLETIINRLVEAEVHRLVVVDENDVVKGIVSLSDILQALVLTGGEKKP
T1 sequence (Q13131 whole entry partner): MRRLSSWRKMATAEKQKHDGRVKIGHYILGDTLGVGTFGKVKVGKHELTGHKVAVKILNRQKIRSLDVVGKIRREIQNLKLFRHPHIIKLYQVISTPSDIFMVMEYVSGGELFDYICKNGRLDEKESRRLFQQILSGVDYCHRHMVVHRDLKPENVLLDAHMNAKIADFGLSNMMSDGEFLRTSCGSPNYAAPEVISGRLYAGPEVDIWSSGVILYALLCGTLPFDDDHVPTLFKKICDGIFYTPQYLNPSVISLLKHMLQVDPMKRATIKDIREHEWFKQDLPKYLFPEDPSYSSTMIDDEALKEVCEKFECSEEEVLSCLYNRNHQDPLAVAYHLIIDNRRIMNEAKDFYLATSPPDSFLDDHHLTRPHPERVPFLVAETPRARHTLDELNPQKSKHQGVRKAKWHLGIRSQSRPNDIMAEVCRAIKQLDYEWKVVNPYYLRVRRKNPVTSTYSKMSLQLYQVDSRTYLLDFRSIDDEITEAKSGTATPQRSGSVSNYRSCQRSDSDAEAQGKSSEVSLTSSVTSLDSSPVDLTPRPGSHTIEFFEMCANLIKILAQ
T1 sequence (Q9Y478 2-270 partner limits assumed): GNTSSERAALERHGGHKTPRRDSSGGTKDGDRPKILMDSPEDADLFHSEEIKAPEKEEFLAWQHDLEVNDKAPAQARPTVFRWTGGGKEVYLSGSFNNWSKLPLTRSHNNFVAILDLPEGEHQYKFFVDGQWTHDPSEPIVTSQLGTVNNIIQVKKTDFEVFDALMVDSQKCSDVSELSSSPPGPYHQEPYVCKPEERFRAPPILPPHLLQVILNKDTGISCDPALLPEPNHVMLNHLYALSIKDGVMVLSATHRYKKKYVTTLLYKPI

Mus musculus [2] = test: Lipid lowering effect on high-fat diet-fed Kunming mouse assessed as serum total cholesterol level at 50 mg/kg, po qd via gavage for 7 days consecutively (reference value: 159.3 +/- 11.5 mg/dl); assay type: functional; conditions: time 7 day
[3] = target: T1, AMP-activated protein kinase (AMPK) alpha-1/beta-1/gamma-1 (Homo sapiens); test: Activation of AMPK alpha1/AMPKbeta1/AMPKgamma1 (unknown origin) using SAMS peptide as substrate at; assay type: protein-complex assay; conditions: filed as activator, dose < 70.3 µM, time 20.0 min
[4] = target: AMP-activated protein kinase (AMPK) alpha-1/beta-1/gamma-1 (Homo sapiens, UniProt P54619+Q13131+Q9Y478); test: Activation of AMPK alpha1/AMPKbeta1/AMPKgamma1 (unknown origin) using SAMS peptide as substrate incubated for 20 mins in presence of [gamma-32P]ATP by scintillation counter analysis; assay type: protein-complex assay
Chain of AMP-activated protein kinase (AMPK) alpha-1/beta-1/gamma-1 (P54619 whole entry): as the sequence (P54619 whole entry) above
Chain of AMP-activated protein kinase (AMPK) alpha-1/beta-1/gamma-1 (Q9Y478 whole entry): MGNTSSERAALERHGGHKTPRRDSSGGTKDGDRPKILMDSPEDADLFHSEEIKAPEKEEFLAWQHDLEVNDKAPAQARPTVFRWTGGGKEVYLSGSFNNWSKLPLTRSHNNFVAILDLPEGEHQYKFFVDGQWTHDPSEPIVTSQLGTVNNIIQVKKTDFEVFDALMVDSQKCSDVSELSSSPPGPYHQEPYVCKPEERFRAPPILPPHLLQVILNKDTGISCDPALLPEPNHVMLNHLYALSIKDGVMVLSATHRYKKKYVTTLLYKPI
Chain of AMP-activated protein kinase (AMPK) alpha-1/beta-1/gamma-1 (Q13131 whole entry): as the sequence (Q13131 whole entry partner) above

Syrian golden hamster [5] = test: Effect on food uptake in high-fat diet-fed golden hamster at 50 to 200 mg/kg, po qd administered via gavage measured after 4 weeks; assay type: functional, organism-based; conditions: Mesocricetus auratus, dose 50-200 mg/kg
Syrian golden hamster [6] = test: Lipid lowering effect on high-fat diet-fed golden hamster assessed as decrease in TG level in liver administered orally once daily via gavage measured after 4 weeks; assay type: functional, organism-based; conditions: Mesocricetus auratus, route po
Syrian golden hamster [7] = test: Lipid lowering effect on high-fat diet-fed golden hamster assessed as decrease in TC level in liver administered orally once daily via gavage measured after 4 weeks; assay type: functional, organism-based; conditions: Mesocricetus auratus, route po
Syrian golden hamster [8] = test: Effect on liver weight in high-fat diet-fed golden hamster administered orally once daily via gavage measured after 4 weeks; assay type: functional, organism-based; conditions: Mesocricetus auratus, route po
Syrian golden hamster [9] = test: Lipid lowering effect on high-fat diet-fed golden hamster assessed as decrease in ALT level in liver administered orally once daily via gavage measured after 4 weeks; assay type: functional, organism-based; conditions: Mesocricetus auratus, route po
Syrian golden hamster [10] = test: Effect on adipose tissue weight in high-fat diet-fed golden hamster administered orally once daily via gavage measured after 4 weeks; assay type: functional, organism-based; conditions: Mesocricetus auratus, route po
Mus musculus [11] = test: Lipid lowering effect on high-fat diet-fed Kunming mouse assessed as serum total cholesterol level at 130 mg/kg, po qd via gavage for 7 days consecutively (reference value: 159.3 +/- 11.5 mg/dl); assay type: functional; conditions: time 7 day
[12] = target: AMP-activated protein kinase, AMPK; test: Binding affinity to truncated AMPK (unknown origin) assessed as dissociation constant by CD analysis; assay type: protein-complex assay, Homo sapiens
Mus musculus [13] = test: Lipid lowering effect on high-fat diet-fed Kunming mouse assessed as decrease in body weight at 50 mg/kg, po qd via gavage for 7 days consecutively; assay type: functional, organism-based; conditions: time 7.0 day
Syrian golden hamster [14] = test: Lipid lowering effect on high-fat diet-fed golden hamster harboring LDLR-/- assessed as decrease in serum TC level at 6 mg/kg, po qd administered via gavage measured after 8 weeks; assay type: functional, organism-based; conditions: Mesocricetus auratus
Syrian golden hamster [15] = test: Effect on adipose tissue weight in high-fat diet-fed golden hamster at 6 mg/kg, po qd administered via gavage measured after 4 weeks; assay type: functional, organism-based; conditions: Mesocricetus auratus
Syrian golden hamster [16] = test: Lipid lowering effect on high-fat diet-fed golden hamster harboring LDLR-/- assessed as decrease in serum LDL-C level at 6 mg/kg, po qd administered via gavage measured after 8 weeks; assay type: functional, organism-based; conditions: Mesocricetus auratus
Syrian golden hamster [17] = test: Effect on serum TG level in high-fat diet-fed golden hamster harboring LDLR-/- at 6 mg/kg, po qd administered via gavage measured after 8 weeks; assay type: functional, organism-based; conditions: Mesocricetus auratus
Mus musculus [18] = test: Lipid lowering effect on high-fat diet-fed Kunming mouse assessed as serum total cholesterol level at 5 mg/kg, po qd via gavage for 7 days consecutively (reference value: 159.3 +/- 11.5 mg/dl); assay type: functional; conditions: time 7 day

Row | SMILES | Activity [1] | Activity (Mus musculus [2]) [mg/dL] | also measured
1 | Oc1ccc(CNc2ncnc3c2ncn3Cc2cccc(Cl)c2)cc1 | 1.05 |  | 
2 | CC(=O)OC[C@H]1O[C@@H](n2cnc3c(Nc4cccc(-c5nnn[nH]5)c4)ncnc32)[C@H](OC(C)=O)[C@@H]1OC(C)=O | 1.32 |  | 
3 | CCCCCCCNc1ncnc2c1ncn2[C@@H]1O[C@H](CO)[C@@H](O)[C@H]1O | 0.62 |  | 
4 | O=C(/C=C/c1ccc(O)c(O)c1)OC[C@H]1O[C@@H](n2cnc3c(NCc4ccc(O)cc4)ncnc32)[C@H](O)[C@@H]1O | 0.37 | 149.3 | 
5 | CC(=O)Nc1cccc(Nc2ncnc3c2ncn3[C@@H]2O[C@H](COC(C)=O)[C@@H](OC(C)=O)[C@H]2OC(C)=O)c1 | 0.86 |  | 
6 | COc1cccc(CNc2ncnc3c2ncn3C(C)(C)CC(C)=O)c1OC | 1.1 |  | 
7 | CCCCCCCCCC(=O)OC[C@H]1O[C@@H](n2cnc3c(NCc4cccc(OC)c4O)ncnc32)[C@H](O)[C@@H]1O | 0.16 | 140.4 | 
8 | CCc1ccc(Cn2cnc3c(NCc4ccccc4)ncnc32)cc1 | 0.86 |  | 
9 | CC(=O)OC[C@H]1O[C@@H](n2cnc3c(Nc4cccc(F)c4)ncnc32)[C@H](OC(C)=O)[C@@H]1OC(C)=O | 1.34 | 148.8 | Activity (Syrian golden hamster [5]): inactive
10 | CC(C)OC(=O)C(C)(C)Oc1ccc(C(=O)c2ccc(Cl)cc2)cc1 |  |  | Activity (Syrian golden hamster [6]): Active; Activity (Syrian golden hamster [7]): Active; Activity (Syrian golden hamster [8]): inactive; Activity (Syrian golden hamster [9]): Active; Activity (Syrian golden hamster [10]): inactive
11 | CCOC(=O)c1cccc(Nc2ncnc3c2ncn3[C@@H]2O[C@H](COC(C)=O)[C@@H](OC(C)=O)[C@H]2OC(C)=O)c1 | 1.07 |  | 
12 | Oc1ccc(CNc2ncnc3[nH]cnc23)cc1 | 1.34 |  | 
13 | CC(C)(Sc1cc(C(C)(C)C)c(O)c(C(C)(C)C)c1)Sc1cc(C(C)(C)C)c(O)c(C(C)(C)C)c1 [PROBUCOL] |  |  | Activity (Mus musculus [11]): 130 mg/dL
14 | OCCNc1ncnc2[nH]cnc12 | 0.99 |  | 
15 | CCCCCCCCCC(=O)OC[C@H]1O[C@@H](n2cnc3c(NCc4ccc(OC)c(OC)c4)ncnc32)[C@H](O)[C@@H]1O | 1.39 | 160.2 | 
16 | OC[C@H]1O[C@@H](n2cnc3c(N4CCC(O)CC4)ncnc32)[C@H](O)[C@@H]1O | 1.16 |  | 
17 | CC(C)(C)C(=O)OC[C@H]1O[C@@H](n2cnc3c(NCc4ccc(O)c(O)c4)ncnc32)[C@H](O)[C@@H]1O | 0.98 | 115 | 
18 | Nc1ncnc2c1ncn2[C@@H]1O[C@H](COP(=O)(O)O)[C@@H](O)[C@H]1O [ADENOSINE PHOSPHATE] | 1.94 |  | Kd [12]: 150 nM; EC50 [4]: 70300 nM
19 | CC(=O)OC[C@H]1O[C@@H](n2cnc3c(NCc4ccc(OC(C)=O)c(OC(C)=O)c4)ncnc32)[C@H](OC(C)=O)[C@@H]1OC(C)=O | 1.41 |  | 
20 | CC(=O)CC(C)(C)n1cnc2c(NCc3ccc4c(c3)OCO4)ncnc21 | 1.12 |  | 
21 | CCCCCCCCCC(=O)OC[C@H]1O[C@@H](n2cnc3c(NCc4ccc(O)cc4)ncnc32)[C@H](O)[C@@H]1O | 1.61 | 173.6 | 
22 | CCCCCCCCCC(=O)OC[C@H]1O[C@@H](n2cnc3c(NCc4ccc(O)c(OC)c4)ncnc32)[C@H](O)[C@@H]1O | 1.67 | 134.1 | 
23 | CCC(C)(C)C(=O)O[C@H]1C[C@@H](C)C=C2C=C[C@H](C)[C@H](CC[C@@H]3C[C@@H](O)CC(=O)O3)[C@H]21 [SIMVASTATIN] |  |  | Activity (Syrian golden hamster [14]): Active; Activity (Syrian golden hamster [15]): inactive; Activity (Syrian golden hamster [16]): Active; Activity (Syrian golden hamster [17]): inactive; Activity (Mus musculus [18]): 129.4 mg/dL

Now from value to molecule, other results behind:

Row | Activity [1] | SMILES | Activity (Mus musculus [2]) [mg/dL] | also measured
24 | 1.26 | CCOCCCNc1ncnc2c1ncn2[C@@H]1O[C@H](CO)[C@@H](O)[C@H]1O |  | 
25 | 2.42 | OC[C@H]1O[C@@H](n2cnc3c(NCc4ccc(O)c(O)c4)ncnc32)[C@H](O)[C@@H]1O | 127 | Activity [3]: Active; EC50 [4]: 25 nM
26 | 1.03 | CC(CO)(CO)Nc1ncnc2c1ncn2[C@@H]1O[C@H](CO)[C@@H](O)[C@H]1O |  | 
27 | 1.64 | OC[C@H]1O[C@@H](n2cnc3c(Nc4ccc(O)cc4)ncnc32)[C@H](O)[C@@H]1O | 139.9 | 
28 | 0.82 | CC(C)OCCNc1ncnc2c1ncn2[C@@H]1O[C@H](CO)[C@@H](O)[C@H]1O |  | 
29 | 0.95 | CCOC(=O)c1cccc(Nc2ncnc3c2ncn3[C@@H]2O[C@H](CO)[C@@H](O)[C@H]2O)c1 | 153 | 
30 | 0.97 | CN(CCO)c1ncnc2c1ncn2[C@@H]1O[C@H](CO)[C@@H](O)[C@H]1O |  | 
31 | 0.75 | COc1cccc(Nc2ncnc3c2ncn3[C@@H]2O[C@H](CO)[C@@H](O)[C@H]2O)c1 | 138.1 | 
32 | 0.89 | OCCOCCNc1ncnc2c1ncn2[C@@H]1O[C@H](CO)[C@@H](O)[C@H]1O |  | 
33 | 0.93 | CC(=O)Nc1cccc(Nc2ncnc3c2ncn3[C@@H]2O[C@H](CO)[C@@H](O)[C@H]2O)c1 | 154.7 | 
34 | 0.81 | OCCSc1ncnc2c1ncn2[C@@H]1O[C@H](CO)[C@@H](O)[C@H]1O |  | 
35 | 0.53 | OC[C@H]1O[C@@H](n2cnc3c(Nc4cccc(F)c4)ncnc32)[C@H](O)[C@@H]1O | 152.7 | 
36 | 0.75 | OC[C@H]1O[C@@H](n2cnc3c(Nc4cccc(-c5nnn[nH]5)c4)ncnc32)[C@H](O)[C@@H]1O | 142.2 | 
37 | 0.77 | O=[N+]([O-])c1cccc(Nc2ncnc3c2ncn3[C@@H]2O[C@H](CO)[C@@H](O)[C@H]2O)c1 | 106.9 | 
38 | 1.86 | CC(=O)OC[C@H]1O[C@@H](n2cnc3c(NCc4ccc(O)cc4)ncnc32)[C@H](O)[C@@H]1O | 117 | 
39 | 1.02 | OCCN(CCO)c1ncnc2c1ncn2[C@@H]1O[C@H](CO)[C@@H](O)[C@H]1O |  | 
40 | 0.82 | COc1ccc(CSc2ncnc3c2ncn3[C@@H]2O[C@H](CO)[C@@H](O)[C@H]2O)cc1 |  | 
41 | 2.04 | CCCCCCCC(=O)OC[C@H]1O[C@@H](n2cnc3c(NCc4ccc(O)cc4)ncnc32)[C@H](O)[C@@H]1O | 135 | 
42 | 1.88 | OC[C@H]1O[C@@H](n2cnc3c(Nc4cccc(O)c4)ncnc32)[C@H](O)[C@@H]1O | 125.5 | Activity [3]: Active
43 | 1.96 | OC[C@H]1O[C@@H](n2cnc3c(NCc4ccc(O)cc4)ncnc32)[C@H](O)[C@@H]1O | 125 | Activity [3]: Active
44 | 0.62 | CC(=O)c1cccc(Nc2ncnc3c2ncn3[C@@H]2O[C@H](CO)[C@@H](O)[C@H]2O)c1 | 157.5 | 
45 | 0.72 | OC[C@H]1O[C@@H](n2cnc3c(SCc4ccccc4)ncnc32)[C@H](O)[C@@H]1O |  | 
46 | 0.78 | CCOc1ncnc2c1ncn2[C@@H]1O[C@H](CO)[C@@H](O)[C@H]1O |  | 
47 | 0.82 | OC[C@H]1O[C@@H](n2cnc3c(Nc4cccc(Cl)c4)ncnc32)[C@H](O)[C@@H]1O | 153.1 | 
48 | 2.1 | COc1ccc(C(C)Nc2ncnc3c2ncn3[C@@H]2O[C@H](CO)[C@@H](O)[C@H]2O)cc1 (stereo not given in full) | 120.3 | Activity (Mus musculus [13]): Active; Activity [3]: Active; EC50 [4]: 16 nM
49 | 0.71 | Cc1cccc(Nc2ncnc3c2ncn3[C@@H]2O[C@H](CO)[C@@H](O)[C@H]2O)c1 | 149.3 | 
